In the NIST ThermoML archive (doi:10.1016/j.fluid.2012.11.018):
Numbers after ± are expanded uncertainties.

How the values were obtained:
[1] = refractive index (Na D-line) (dimensionless); conditions: 298.2 K; 101.33 kPa; Liquid; Standard Abbe refractometry
[2] = 298.2 K; 101.33 kPa; Liquid; Vibrating tube method

refractive index [1] | Compound | mass density [2]
1.333 ± 0.0004 | O [water] | 
1.4456 ± 0.0004 | ClC(Cl)Cl [trichloromethane] | 1480.34 ± 0.34 kg/m3

Compound | refractive index [1] | mass density [2]
CC1CN1 (stereo not given) [2-methylaziridine] | 1.4116 ± 0.0006 | 802.23 ± 0.8 kg/m3
